Experimental data taken from US20230151003A1, “COMPOUNDS AND METHODS OF USE” (Exelixis, Inc., priority 2020, published 2023).

Legend:
Type in all cases: cell-based
[1] = target: T1, Mer (Homo sapiens, UniProt Q12866); assay: Mer autophosphorylation ELISA in transient transfected 293A cells; conditions: Table 3 Cellular Activities; MERTK-transfected 293A cells, phospho-Mer ELISA
T1 construct: host or cells: 293A cells (Thermo Fisher #R70507)
T1 sequence (Q12866 21-999): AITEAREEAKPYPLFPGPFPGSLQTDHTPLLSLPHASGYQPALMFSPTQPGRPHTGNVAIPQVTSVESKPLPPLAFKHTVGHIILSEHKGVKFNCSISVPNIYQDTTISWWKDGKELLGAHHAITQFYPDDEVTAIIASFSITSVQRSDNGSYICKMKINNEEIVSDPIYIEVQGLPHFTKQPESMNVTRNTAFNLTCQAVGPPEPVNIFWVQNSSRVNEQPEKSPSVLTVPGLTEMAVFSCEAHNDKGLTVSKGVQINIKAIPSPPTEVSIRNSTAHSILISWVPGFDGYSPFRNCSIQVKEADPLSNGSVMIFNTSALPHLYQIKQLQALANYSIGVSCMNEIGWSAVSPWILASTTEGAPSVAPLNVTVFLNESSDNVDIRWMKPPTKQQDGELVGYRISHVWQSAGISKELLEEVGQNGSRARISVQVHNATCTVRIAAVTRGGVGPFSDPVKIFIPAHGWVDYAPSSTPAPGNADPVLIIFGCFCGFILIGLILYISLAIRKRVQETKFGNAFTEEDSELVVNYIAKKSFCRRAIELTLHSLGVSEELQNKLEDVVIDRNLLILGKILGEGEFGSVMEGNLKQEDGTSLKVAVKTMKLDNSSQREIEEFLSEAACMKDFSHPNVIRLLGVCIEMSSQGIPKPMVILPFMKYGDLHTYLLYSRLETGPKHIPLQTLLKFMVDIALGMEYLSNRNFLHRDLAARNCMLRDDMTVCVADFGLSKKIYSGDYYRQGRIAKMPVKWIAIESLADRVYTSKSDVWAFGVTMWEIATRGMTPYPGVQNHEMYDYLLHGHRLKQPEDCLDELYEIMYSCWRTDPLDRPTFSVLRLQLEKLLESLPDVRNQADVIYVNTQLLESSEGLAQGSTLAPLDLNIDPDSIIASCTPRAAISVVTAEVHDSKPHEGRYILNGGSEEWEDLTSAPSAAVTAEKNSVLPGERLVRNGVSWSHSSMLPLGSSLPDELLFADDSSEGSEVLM
Protocol: 293A cells (Thermo Fisher #R70507) were seeded at 1.5×10^6 cells/well onto 100 mm dish (Greiner #664169), in DMEM (Thermo Fisher #11995-040) containing 10% FBS (Thermo Fisher #26140-079), 1% MEM NEAA (Thermo Fisher #11140-050), 1% GlutaMax (Thermo Fisher #35050-061), and 1% Penicillin Streptomycin (Thermo Fisher #15140-122). 293A cells were incubated at 37° C., 5% CO2 for 24 h and then transfected with 6μg MERTK DNA (Genecopoeia #EX-Z8208-M02) using TransIT LT1 transfection reagent (Mirus-Bio #MIR2305). After 24 h incubation, the transfected 293A cells were seeded at 1×10^5 cells/well onto 96-well plates (Corning #3904) in DMEM growth medium overnight. Test compounds were serially diluted to produce an 8-point dose curve in fresh serum-free medium to a final concentration of 0.3% DMSO (vehicle) and added to the cells and incubated for 1 h. Cells were then immediately lysed with 150 μL of cold 1× lysis buffer […], 137 mM sodium chloride, 2 mM EDTA, 10% glycerol, 1% NP-40 alternative, 1 mM activated sodium orthovanadate, 1 mM PefaBloc SC (Sigma-Aldrich #11429868001), protease/phosphatase inhibitor tablet (Thermo Fisher #A32959)]. Lysates were clarified by centrifugation and 50 μL/well added into the human phospho-Mer DuoSet IC ELISA (R&D Systems #DYC2579-2). Assay was performed according to manufacturer's instructions and sample phospho-Mer concentrations were extrapolated using human phospho-Mer control (R&D Systems #841793) as a standard. Positive control wells (100% activity) contained DMSO-treated cell lysates. Negative control wells (0% activity) contained reference inhibitor-treated cell lysates. IC50 values were calculated by nonlinear regression analysis using a 4-parameter logistic curve fit in ActivityBase XE (IDBS).

[2] = target: KDR (Homo sapiens, UniProt P35968); assay: KDR autophosphorylation ELISA in HUVEC cells; design: endogenous in cells; host or cells: HUVEC (Lonza #C2519A); conditions: Table 3 Cellular Activities, VEGF165-stimulated, phospho-KDR ELISA
KDR, sequence (P35968 20-1356): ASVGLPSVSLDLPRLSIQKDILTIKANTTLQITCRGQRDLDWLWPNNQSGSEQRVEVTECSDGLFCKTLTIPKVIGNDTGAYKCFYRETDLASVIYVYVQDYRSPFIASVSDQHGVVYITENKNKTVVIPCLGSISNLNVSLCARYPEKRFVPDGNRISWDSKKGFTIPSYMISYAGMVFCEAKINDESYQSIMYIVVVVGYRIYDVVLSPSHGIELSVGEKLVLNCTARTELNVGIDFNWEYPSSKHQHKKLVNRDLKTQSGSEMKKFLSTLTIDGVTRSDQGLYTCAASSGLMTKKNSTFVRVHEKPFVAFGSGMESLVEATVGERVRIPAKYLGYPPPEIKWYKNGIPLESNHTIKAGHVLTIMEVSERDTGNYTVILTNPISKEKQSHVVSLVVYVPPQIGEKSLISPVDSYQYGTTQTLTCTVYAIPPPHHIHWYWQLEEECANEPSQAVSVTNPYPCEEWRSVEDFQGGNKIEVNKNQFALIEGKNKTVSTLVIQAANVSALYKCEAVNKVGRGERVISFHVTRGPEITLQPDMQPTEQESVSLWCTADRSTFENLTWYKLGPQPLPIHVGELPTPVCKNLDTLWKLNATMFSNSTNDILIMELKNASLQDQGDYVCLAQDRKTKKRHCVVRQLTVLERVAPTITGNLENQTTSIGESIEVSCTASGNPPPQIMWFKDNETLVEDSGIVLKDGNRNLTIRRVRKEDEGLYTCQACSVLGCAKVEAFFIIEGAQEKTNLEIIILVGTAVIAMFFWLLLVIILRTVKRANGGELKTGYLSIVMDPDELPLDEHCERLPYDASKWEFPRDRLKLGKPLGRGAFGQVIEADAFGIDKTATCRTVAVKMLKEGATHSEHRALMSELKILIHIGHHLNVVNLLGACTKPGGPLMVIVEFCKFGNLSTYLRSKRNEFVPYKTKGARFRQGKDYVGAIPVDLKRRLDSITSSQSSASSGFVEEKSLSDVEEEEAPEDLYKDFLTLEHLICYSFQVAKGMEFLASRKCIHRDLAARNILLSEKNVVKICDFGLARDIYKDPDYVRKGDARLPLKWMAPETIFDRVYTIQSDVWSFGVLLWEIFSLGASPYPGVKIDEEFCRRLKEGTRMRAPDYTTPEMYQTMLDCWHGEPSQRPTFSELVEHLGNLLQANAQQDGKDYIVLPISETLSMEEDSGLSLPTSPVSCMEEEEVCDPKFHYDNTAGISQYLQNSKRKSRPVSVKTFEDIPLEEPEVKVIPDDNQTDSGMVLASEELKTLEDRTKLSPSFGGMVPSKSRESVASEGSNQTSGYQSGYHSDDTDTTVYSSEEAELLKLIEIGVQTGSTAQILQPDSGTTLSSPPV
Protocol: Human umbilical vein endothelial cells or HUVEC (Lonza #C2519A) were seeded at 2×10^4 cells/well onto 96-well plates (Corning #3904), in EGM-2 growth medium (Lonza #CC-3162) containing 1% Penicillin Streptomycin (Thermo Fisher #15140-122). HUVEC cells were incubated at 37° C., 5% CO2 for 24 h and then starved for 24 h in serum-free EBM-2 basal medium (Lonza #CC-3156) containing 1% Penicillin Streptomycin. Test compounds were serially diluted to produce an 8-point dose curve in fresh serum-free medium to a final concentration of 0.3% DMSO (vehicle) and added to the cells and incubated for 1 h. Cells were then stimulated with 100 ng/mL recombinant human VEGF165 (R&D Systems #293-VE-500) for 5 min, washed with cold PBS, and immediately lysed with 130 μL of cold 1× lysis buffer [20 mM Tris, 137 mM sodium chloride, 2 mM EDTA, 10% glycerol, 1% NP-40 alternative, 1 mM activated sodium orthovanadate, 1 mM PefaBloc SC (Sigma-Aldrich #11429868001), protease/phosphatase inhibitor tablet (Thermo Fisher #A32959)]. Lysates were collected and 100 μL/well added into the human phospho-KDR DuoSet IC ELISA (R&D Systems #DYC1766-2). Assay was performed according to manufacturer's instructions and sample phospho-KDR concentrations were extrapolated using human phospho-KDR control (R&D Systems #841421) as a standard. Positive control wells (100% activity) contained VEGF165-stimulated, DMSO-treated cell lysates. Negative control wells (0% activity) contained non-stimulated cell lysates. IC50 values were calculated by nonlinear regression analysis using a 4-parameter logistic curve fit in ActivityBase XE (IDBS).

[3] = target: Met (Homo sapiens, UniProt P08581); assay: Met autophosphorylation ELISA in PC-3 cells; design: endogenous in cells; host or cells: PC-3 prostate cancer cells (ATCC #CRL-1435); conditions: Table 3 Cellular Activities, HGF-stimulated, phospho-Met ELISA, read-out: c-Met IC50
Met, sequence (P08581 25-1390): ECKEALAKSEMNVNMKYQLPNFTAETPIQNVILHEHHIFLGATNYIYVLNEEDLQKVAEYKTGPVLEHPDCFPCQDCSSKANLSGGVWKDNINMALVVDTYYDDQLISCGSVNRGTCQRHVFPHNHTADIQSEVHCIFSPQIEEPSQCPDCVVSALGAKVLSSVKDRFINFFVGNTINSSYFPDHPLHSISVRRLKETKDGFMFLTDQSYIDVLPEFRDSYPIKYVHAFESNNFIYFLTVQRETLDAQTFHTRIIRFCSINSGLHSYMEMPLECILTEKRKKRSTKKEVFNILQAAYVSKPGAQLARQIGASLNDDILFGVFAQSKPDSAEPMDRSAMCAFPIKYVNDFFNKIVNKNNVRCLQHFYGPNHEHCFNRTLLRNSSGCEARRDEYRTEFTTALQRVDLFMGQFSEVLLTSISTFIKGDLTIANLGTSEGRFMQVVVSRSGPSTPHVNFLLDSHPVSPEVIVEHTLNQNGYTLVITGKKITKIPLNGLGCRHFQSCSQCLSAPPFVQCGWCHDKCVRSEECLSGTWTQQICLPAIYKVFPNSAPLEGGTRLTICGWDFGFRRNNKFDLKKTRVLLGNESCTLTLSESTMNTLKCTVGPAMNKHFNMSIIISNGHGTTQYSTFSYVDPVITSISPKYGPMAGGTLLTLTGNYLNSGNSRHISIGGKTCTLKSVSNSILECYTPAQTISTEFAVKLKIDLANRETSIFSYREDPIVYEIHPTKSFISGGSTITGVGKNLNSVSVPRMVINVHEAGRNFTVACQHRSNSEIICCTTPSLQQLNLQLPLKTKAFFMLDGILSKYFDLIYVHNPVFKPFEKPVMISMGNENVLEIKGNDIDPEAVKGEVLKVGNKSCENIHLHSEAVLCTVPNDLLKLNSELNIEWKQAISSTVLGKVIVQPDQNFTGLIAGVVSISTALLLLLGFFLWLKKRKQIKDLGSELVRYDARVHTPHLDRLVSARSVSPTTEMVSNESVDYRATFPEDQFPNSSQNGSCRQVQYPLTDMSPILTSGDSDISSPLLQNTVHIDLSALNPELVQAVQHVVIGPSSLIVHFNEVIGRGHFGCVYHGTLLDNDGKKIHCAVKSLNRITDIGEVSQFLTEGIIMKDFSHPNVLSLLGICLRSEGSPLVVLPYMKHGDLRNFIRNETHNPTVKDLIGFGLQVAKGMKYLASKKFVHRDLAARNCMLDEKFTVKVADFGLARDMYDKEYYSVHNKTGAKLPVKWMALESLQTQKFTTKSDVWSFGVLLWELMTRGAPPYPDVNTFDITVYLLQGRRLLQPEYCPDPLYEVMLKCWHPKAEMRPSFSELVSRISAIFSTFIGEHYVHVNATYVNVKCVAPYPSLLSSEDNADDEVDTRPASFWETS
Protocol: PC-3 prostate cancer cells (ATCC #CRL-1435) were seeded at 4×10^4 cells/well onto 24-well plates (Greiner #662165), in DMEM (Thermo Fisher #11995-040) containing 10% FBS (Thermo Fisher #26140-079), 1% MEM NEAA (Thermo Fisher #11140-050), 1% GlutaMax (Thermo Fisher #35050-061), and 1% Penicillin Streptomycin (Thermo Fisher #15140-122). PC-3 cells were incubated at 37° C., 5% CO2 for 24 h and then starved for 3 h in serum-free medium. Test compounds were serially diluted to produce an 8-point dose curve in fresh serum-free medium to a final concentration of 0.3% DMSO (vehicle) and added to the cells and incubated for 1 h. Cells were then stimulated with 100 ng/mL recombinant human HGF (R&D Systems #294-HG-250) for 10 min, washed with cold PBS, and immediately lysed with 130 μL of cold 1× lysis buffer [20 mM Tris, 137 mM sodium chloride, 2 mM EDTA, 10% glycerol, 1% NP-40 alternative, 1 mM activated sodium orthovanadate, 1 mM PefaBloc SC (Sigma-Aldrich #11429868001), protease/phosphatase inhibitor tablet (Thermo Fisher #A32959)]. Lysates were clarified by centrifugation and 100 μL/well added into the PathScan phospho-Met (panTyr) Sandwich ELISA (Cell Signaling Technology #7333). Assay was performed according to manufacturer's instructions. Positive control wells (100% activity) contained HGF-stimulated, DMSO-treated cell lysates. Negative control wells (0% activity) contained HGF-stimulated, reference inhibitor-treated cell lysates. IC50 values were calculated by nonlinear regression analysis using a 4-parameter logistic curve fit in ActivityBase XE (IDBS).

Row | Structure (SMILES) | IC50 [1] [µM] | IC50 [2] [µM] | IC50 [3] [µM]
1 | COc1cnc2c(Oc3ccc(NC(=O)c4c(C)n(C)c(C)c(-c5ccco5)c4=O)cc3F)ccnc2c1 [Compound 162, N-[3-Fluoro-4-[(7-methoxy-1,5-naphthyridin-4-yl)oxy]phenyl]-5-(furan-2-yl)-1,2,6-trimethyl-4-oxopyridine-3-carboxamide] | ≤ 0.1 | 0.3 to 1 | ≤ 0.1
2 | CCc1c(C(=O)Nc2ccc(Oc3ccnc4cc(OC)c(OC)nc34)cc2)c(=O)c(-c2ccco2)c(C)n1C [Compound 325, N-[4-[(6,7-Dimethoxy-1,5-naphthyridin-4-yl)oxy]phenyl]-2-ethyl-5-(furan-2-yl)-1,6-dimethyl-4-oxopyridine-3-carboxamide] | ≤ 0.1 | 0.3 to 1 | 0.3 to 1
3 | CCOCCOCCOc1cc(-n2c(C)ccc(C(=O)Nc3ccc(Oc4ccnc5cc(OC)c(OC)nc45)c(F)c3)c2=O)ccn1 [Compound 224, N-[4-[(6,7-Dimethoxy-1,5-naphthyridin-4-yl)oxy]-3-fluorophenyl]-1-[2-[2-(2-ethoxyethoxy)ethoxy]pyridin-4-yl]-6-methyl-2-oxopyridine-3-carboxamide] | ≤ 0.1 | ≤ 0.1 | ≤ 0.1

Second part, the molecule after the results:

Row | IC50 [1] [µM] | IC50 [2] [µM] | IC50 [3] [µM] | Structure (SMILES)
4 | ≤ 0.1 | 0.1 to 0.3 | ≤ 0.1 | COc1cc2nccc(Oc3ccc(NC(=O)c4c5n(cc(-c6ccsc6)c4=O)CCOC5)cc3F)c2nc1OC [Compound 300, N-[4-[(6,7-Dimethoxy-1,5-naphthyridin-4-yl)oxy]-3-fluorophenyl]-8-oxo-7-thiophen-3-yl-3,4-dihydro-1H-pyrido[2,1-c][1,4]oxazine-9-carboxamide]
5 | ≤ 0.1 | 0.3 to 1 | ≤ 0.1 | COCCOc1cnc2c(Oc3ccc(NC(=O)c4c(C)n(C)c(C)c(-c5ccco5)c4=O)cc3F)ccnc2c1 [Compound 266, N-[3-Fluoro-4-[[7-(2-methoxyethoxy)-1,5-naphthyridin-4-yl]oxy]phenyl]-5-(furan-2-yl)-1,2,6-trimethyl-4-oxopyridine-3-carboxamide]
